These results are taken from patent EP2140864A2 (H. Lundbeck A/S, priority 2001, dated 2002).

A word on the pKi: it is −log10 of the Ki, conventionally taken in molar units.

One assay deals with T1, human GAL1 receptor (Homo sapiens, UniProt P47211).
T1 construct: expressed in transfected cells
T1 sequence (P47211 1-349): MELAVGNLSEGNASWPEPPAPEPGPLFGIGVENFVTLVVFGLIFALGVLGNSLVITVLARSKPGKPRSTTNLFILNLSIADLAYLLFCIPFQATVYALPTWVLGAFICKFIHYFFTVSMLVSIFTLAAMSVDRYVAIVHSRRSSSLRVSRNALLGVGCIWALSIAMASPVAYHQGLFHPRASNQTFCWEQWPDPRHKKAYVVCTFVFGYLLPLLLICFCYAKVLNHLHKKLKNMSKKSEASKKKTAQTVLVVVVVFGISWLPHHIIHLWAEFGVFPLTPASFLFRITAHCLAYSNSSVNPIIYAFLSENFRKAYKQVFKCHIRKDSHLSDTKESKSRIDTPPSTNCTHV
Nature of the assay: Radioligand binding at cloned human GAL1 receptor. The gist of the method: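 Membranes from CHO cells stably expressing human GAL2 and LM(tk-) cells stably expressing human GAL1, resuspended in binding buffer (10 mM NaCl, 20 mM HEPES, pH 7.4). Binding data fitted by nonlinear regression.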

Assay [1] concerns the target T2, human histamine H1 receptor (Homo sapiens, UniProt P35367).
T2 construct: expressed in transfected cells
Nature of the assay: Radioligand binding, histamine H1 receptor. To be noted: for selectivity ratio hH1: Table 10, Ki hH1 divided by Ki hGAL3. The text has this: Other receptors: Cell membranes expressing human dopamine D1, D2, D4 and rat D3 receptors were purchased through BioSignal, Inc. (Montreal, Canada). Binding assays using the histamine H1 receptor; dopamine receptors; and α1A, α1E, and α2 adrenergic receptors may be carried out according to the procedures described in U.S. Patent No. 5,780,485, the disclosure of which is hereby incorporated by reference in its entirety into this application. Binding assays using the dopamine D5 receptor may be carried out according to the procedures described in U.S. Patent No. 5,882,855, the disclosure of which is hereby incorporated by reference in its entirety into this application. Binding assays for the human α1D adrenergic receptor may be carried out according to the procedures described in U.S. Patent No. 6,156,518, the disclosure of which is hereby incorporated by reference in its entirety into this application.
Binding data were analyzed using nonlinear regression and statistical techniques available in the GraphPAD Prism package (San Diego, CA). Enzymatic assay data were derived from a standard curve of reference compound data.

Assay [2] concerns Male albino Sprague-Dawley rats. Nature of the assay: Rat Social Interaction Test (SIT). The class given is in vivo. On the procedure:
Rats were allowed to acclimate to the animal care facility for 5 days and were housed singly for 5 days prior to testing. Animals were handled for 5 minutes per day. The design and procedure for the Social Interaction Test was carried out as previously described by Kennett, et al. (1997). On the test day, weight matched pairs of rats (± 5%), unfamiliar to each other, were given identical treatments and returned to their home cages. Animals were randomly divided into 5 treatment groups, with 5 pairs per group, and were given one of the following i.p. treatments: Example 92 (10, 30 or 100 mg/kg), vehicle (1 ml/kg) or chlordiazepoxide (5 mg/kg). Dosing was 1 hour prior to testing. Rats were subsequently placed in a white perspex test box or arena (54 x 37 x 26 cm), whose floor was divided up into 24 equal squares, for 15 minutes. An air conditioner was used to generate background noise and to keep the room at approximately 74°F. All sessions were videotaped using a JVC camcorder (model GR-SZ1, Elmwood Park, NJ) with either TDK (HG ultimate brand) or Sony 30 minute videocassettes. All sessions were conducted between 1:00 - 4:30 P.M. Active social interaction, defined as grooming, sniffing, biting, boxing, wrestling, following and crawling over or under, was scored using a stopwatch (Sportsline model no. 226, 1/100 sec. discriminability). The number of episodes of rearing (animal completely raises up its body on its hind limbs), grooming (licking, biting, scratching of body), and face washing (i.e. hands are moved repeatedly over face), and number of squares crossed were scored. Passive social interaction (animals are lying beside or on top of each other) was not scored. All behaviors were assessed later by an observer who was blind as to the treatment of each pair. At the end of each test, the box was thoroughly wiped with moistened paper towels.
Male albino Sprague-Dawley rats (Taconic Farms, NY) were housed in pairs under a 12 hr light dark cycle (lights on at 0700 hrs.) with free access to food and water.
Example 92 was dissolved in 100% DMSO (Sigma Chemical Co., St. Louis, MO). Chlordiazepoxide (purchased from Sigma Chemical Co., St. Louis, MO) was dissolved in double distilled water. The vehicle consisted of 50% DMSO (v/v). All drug solutions were made up 10 minutes prior to injection and the solutions were discarded.
Example 34 was dissolved in 5% lactic acid, v/v. The vehicle consisted of 100% dimethylacetamide (DMA) and this was used to make up all drug solutions. All drug solutions were made up fresh each day and any unused solutions were discarded at the end of the test day. The volume of drug solution administered was 1 ml/kg.
The social interaction data (time interacting, rearing and squares crossed) were subjected to a randomized, one-way ANOVA and post hoc tests conducted using the Student-Newman-Keuls test. The data were subjected to a test of normality (Shapiro-Wilk test). The data were analyzed using the GBSTAT program, version 6.5 (Dynamics Microsystems, Inc., Silver Spring, MD, 1997). All data are presented as means ± S.E.M.

[3] abbreviates: pyrimidines, read-out: Ki GalR1.
Where [4] appears, read: 100 mg/kg i.p., 1 hour prior to testing.

pKi: −log10 of the molar value. Read-outs that look alike come from different tables or passages of the source.

T2 sequence (P35367 whole entry): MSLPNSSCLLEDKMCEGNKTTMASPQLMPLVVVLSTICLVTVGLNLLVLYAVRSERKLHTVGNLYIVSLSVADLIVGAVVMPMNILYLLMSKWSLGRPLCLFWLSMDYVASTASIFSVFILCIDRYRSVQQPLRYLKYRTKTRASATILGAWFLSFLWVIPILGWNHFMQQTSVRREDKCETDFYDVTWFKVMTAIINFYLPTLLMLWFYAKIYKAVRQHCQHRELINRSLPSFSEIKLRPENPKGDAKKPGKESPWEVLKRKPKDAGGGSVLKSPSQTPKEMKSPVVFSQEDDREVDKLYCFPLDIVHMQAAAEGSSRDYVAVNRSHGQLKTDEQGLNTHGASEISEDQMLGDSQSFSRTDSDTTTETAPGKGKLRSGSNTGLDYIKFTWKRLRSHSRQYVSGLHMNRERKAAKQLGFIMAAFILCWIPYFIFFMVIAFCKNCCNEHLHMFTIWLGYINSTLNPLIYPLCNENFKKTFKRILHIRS

As for `O=C1C(=Nc2ccc(C(F)(F)F)cc2)c2ccccc2N1c1ccccc1` [Example 95, 1-PHENYL-3-[[4-(TRIFLUOROMETHYL)PHENYL]IMINO]-1,3-DIHYDRO-2H-INDOL-2-ONE], at human GAL1 receptor (indolones, read-out: Ki GalR1), the pKi was < 5.00.

Regarding `Cc1ccc(Nc2cc(N(C)C)nc(N(C)CCc3c[nH]c4ccccc34)n2)cc1` [Example 77], the pKi at human GAL1 receptor (setting [3]) is 5.42.

Take `Cc1ccc(Nc2cc(N3CCCCC3)nc(N(C)CCc3ccccc3)n2)cc1` [Example 22]: at human GAL1 receptor (setting [3]), the negative-log Ki (pKi) was 6.35.

Turning to `O=C1C(=Nc2ccc(Cl)cc2)c2ccccc2N1c1ccccc1` [Example 97, 3-[(4-CHLOROPHENYL)IMINO]-1-PHENYL-1,3-DIHYDRO-2H-INDOL-2-ONE], the pKi on human GAL1 receptor (indolones, read-out: Ki GalR1) is < 5.00.

For the compound `COC[C@@H]1[C@@H](c2ccccc2)OCCN1c1nc(Nc2ccc(C)cc2)cc(N2CCCCC2)n1` [Example 49], the pKi at human GAL1 receptor (read-out: Ki GalR1, pyrimidines) was < 5.30.

With `CN(C)c1cc(Nc2ccc(Cl)c(Cl)c2)nc(Nc2ccccc2)n1` [Example 60], the pKi is < 5.30 at human GAL1 receptor (setting [3]) and 4.40 in assay [1] (Table 9, read-out: hH1 Ki). For the same compound, the “selectivity ratio hH1” value in assay [1] is listed as >100.

For `O=C1C(=Nc2ccc(Br)cc2)c2ccccc2N1c1ccccc1` [Example 98, 3-[(4-BROMOPHENYL)IMINO]-1-PHENYL-1,3-DIHYDRO-2H-INDOL-2-ONE], on human GAL1 receptor (indolones, read-out: Ki GalR1), the negative logarithm of the Ki (pKi) is < 5.00.

As to `O=C1C(=Nc2cc(Cl)cc(Cl)c2)c2ccccc2N1c1ccccc1` [Example 103, 3-[(3,5-DICHLOROPHENYL)IMINO]-1-PHENYL-1,3-DIHYDRO-2H-INDOL-2-ONE], at human GAL1 receptor (indolones, read-out: Ki GalR1), the pKi was < 5.00.

For the compound `O=C1C(=Nc2cccc(Cl)c2)c2ccccc2N1c1ccccc1` [Example 94, 3-[(3-CHLOROPHENYL)IMINO]-1-PHENYL-1,3-DIHYDRO-2H-INDOL-2-ONE], the pKi on human GAL1 receptor (indolones, read-out: Ki GalR1) was < 5.00.

With `CN(CCc1c[nH]c2ccccc12)c1nc(Nc2ccc(F)c(F)c2)cc(N2CCCCC2)n1` [Example 15], on human GAL1 receptor (setting [3]), the pKi is 5.61.

Regarding `O=C1C(=Nc2cccc(C(F)(F)F)c2)c2ccccc2N1c1ccccc1` [Example 92, 1-PHENYL-3- [[3-(TRIFLUOROMETHYL)PHENYL]IMINO]-1,3-DIHYDRO-2H-INDOL-2-ONE], the “selectivity ratio hH1” value in assay [1] is on record as >100. Moreover, the “Squares Crossed” value in assay [2] (10 mg/kg i.p., 1 hour prior to testing) stood at 298 ± 40. In assay [2] (setting [4]), the “Grooming bouts” value is on record as 6.8 ± 1.3 and the Rearings stood at 31 ± 4.

As for `Cc1ccc(Nc2cc(N3CCCCC3)nc(N3CCN(c4ncccc4C(F)(F)F)CC3)n2)cc1` [Example 34], on human GAL1 receptor (setting [3]), the pKi was 6.04. In addition, the “anxiolytic profile in the Social Interaction Test (conclusion)” value in assay [2] (overall conclusion of the study) was “produces an anxioltyic action”.
